The subject of series [1] is NF-κB activation in Jurkat T-cells. The series can be described thus: EMSA for NF-κB activation in Jurkat T-cells. The class given is cell-based, human. To be noted: PMA/Ionomycin. On the procedure:
For compound treatment, MEF cells were seeded in 6 well plates at 1.2×10^5 cells/well the day before treatment. Jurkat T-cells were seeded directly before treatment at 2×10^5 cells/sample. Six hours after compound or DMSO treatment cells were stimulated as indicated. Thereby, MEF cells were left untreated or stimulated with recombinant mouse IL-1β (1 ng/mL) or TNFα (10 ng/mL) for 20 minutes. Jurkat T-cells were stimulated with Phorbol-12-myristat-13-acetet (PMA) (400 ng/mL) and lonomycin (600 ng/mL) for 30 minutes. Eventually, cells were lysed in high-salt lysis buffer (20 mM HEPES pH 7.9; 350 mM NaCl; 1 mM MgCl2; 0.5 mM EDTA; 0.1 mM EGTA; 20% Glycerol; 1% NP-40; 10 mM NaF; 8 mM β-Glycerophosphate; 1 mM DTT; 300 μM Sodium-vanadate; complete protease inhibitor) and analyzed in EMSA assays using H2K (NF-κB) or Oct-1 (loading control) probes.
On the technique in general: In EMSA bound probe runs differently from free probe, usually more slowly.

A further series has as its system BJAB (GCB DLBCL). As to the kind of experiment: Cell viability in DLBCL, BJAB. The class given is cell-based. The settings on record: 30 μM, 9 days. On the procedure:
To determine the effects of C25-140 on MYD88-dependent ABC-DLBCL, we chose the HBL1 (ABC-DLBCL-MYD88 L265P), U2932 (ABC DLBCL-MYD88 wt) and BJAB (GCB DLBCL) cell lines. 1×10^6 cells of each cell line was seeded in 5 ml and treated with 30 μM compound C25-140 (compound 3) or DMSO. The entire experiment was carried out for 9 days. Every day 500 μl were taken and viable cell number was acquired using the ViCEII cell counter (Beckmann Coulter). At days 4 and 8 of the experiment the volume was again adjusted to 5 ml and samples were supplemented with 30 μM compound C25-140 or DMSO. This process was necessary to ensure linear proliferation of DMSO treated cells. All curves of C25-140 treated samples were referred to the corresponding DMSO treated controls.

The target of the next series is T1, TRAF6 RZ1 protein (Homo sapiens, UniProt Q9Y4K3).
T1 construct: GST (N, cleaved yes); made in house; host or cells: E. coli BL21 codon plus RIPL, M9 medium with 15NH4
As to the kind of experiment: Two-dimensional NMR (SOFAST-HMQC) binding experiment. The settings on record: protein:compound 1:5. Here is the method:
To determine whether the inhibitory compounds directly bind to TRAF6 rather than to Ubc13, 2D-NMR experiments were conducted. Untagged ^15N-labeled TRAF6 RZ1 protein (c=120 μM) and compound (c=20 mM) were incubated at a ratio of 1:5 in a 3 mm NMR tube for 10 minutes before spectra acquisition. To observe chemical shift perturbations upon compound addition, two-dimensional SOFAST-HMQC spectra were acquired. All measurements were performed using the Bruker Avance 600 MHz spectrometer.

In series [2] the test system is Diet-Induced-Obesity (DIO) mice. The series can be described thus: Diet-Induced-Obesity (DIO) mouse study. The class given is in vivo. To be noted: 7.4 mg/kg IP once daily. Here is the method:
Mice were fed a high-fat-diet until they reached a body weight of at least 40 g and developed […]. These mice were separated in control group and a group for C25-140 (compound 3) injection. Mice were treated every day with 14 μmol/kg (=7.4 mg/kg) C25-140 intraperitoneally for a period of 20 days. Thereby, C25-140 was dissolved in 2.9% DMSO, 1.5% Tween-80 and 1×PBS. Every day before injection, the body weight and food intake were measured. On day 20, mice were sacrificed two hours after compound injection and […] white adipose tissue from both body sites was removed, frozen in liquid nitrogen and stored at −80° C.

The target in a further series is T2, RNF4 (Homo sapiens, UniProt P78317).
T2 construct: purchased Boston Biochem
The series can be described thus: In vitro ubiquitination assay, RNF4 ubiquitin ligase kit. It is filed as biochemical. Here is the method: For analysis of cIAP1, MDM2, TRIM63, RNF4, ITCH and E6AP mediated poly-ubiquitination, the respective ubiquitin ligase kit from Boston Biochem (K-102, K-260, K-200B, K-220, K-240 and K-270) was used. Here, reaction buffer, E1, E2 and E3 enzyme (and p53 substrate in case of MDM2) were mixed and pre-incubated with compound or DMSO for 5 minutes at room temperature before adding Mg^2+-ATP and mono-ubiquitin for reaction start. Ubiquitination was visualized by Western Blot analyses.

The next series addresses T3, TRAF6 (Homo sapiens, UniProt Q9Y4K3).
T3 construct: GST (N, cleaved yes); made in house; host or cells: E. coli BL21 codon plus RIPL (TRAF6); E1, E2 complex and ubiquitin from Boston Biochem
The series can be described thus: In vitro ubiquitination assay (Western blot), TRAF6 with Ubc13/Uev1a. The class given is biochemical. On the procedure: The ability of TRAF6 to form K63-linked poly-ubiquitin chains in conjunction with Ubc13 was analyzed after compound treatment. Therefore, untagged TRAF6WT and TRAF6D57K, respectively were recombinantly purified. 0.125 μM of TRAF6 protein was pre-incubated with DMSO or compound in a total volume of 100 μL in K63 assay buffer ([…] Tris —HCl pH 7.6; […] MgCL2; […] creatine phosphate; 0.3 U/mL inorganic pyrophosphatase; 0.3 U/mL creatine phosphokinase) for 30 minutes at room temperature. Small aliquots for input samples were taken. A master mix containing 0.01 μM E1-activating enzyme (UBE1) (Boston Biochem), 0.2 μM E2-conjugating enzyme complex (Ubc13/Uev1a) (Boston Biochem), 1 mM ZnCl2, 2 mM ATP und 4 μM mono-ubiquitin (Boston Biochem) was added to the TRAF6 protein and the reaction mixture was incubated for 120 minutes at 37° C. The reaction was stopped by adding 4×SDS loading buffer and boiling at 95° C. for 5 minutes. The input samples were analyzed using the Pierce Silver Stain Kit (Thermo Fisher Scientific). Ubiquitination was detected in Western Blot analysis using an ubiquitin antibody.

For series [3], the system named is TRAF6 auto-ubiquitination in Jurkat T-cells. As to the kind of experiment: Immunoprecipitation of TRAF6 for endogenous ubiquitination, Jurkat T-cells. The class given is cell-based, human. The settings on record: PMA/Ionomycin.

Structures are written as SMILES. “Also recorded” adds a separate entry of the source.

T2 sequence (P78317 whole entry): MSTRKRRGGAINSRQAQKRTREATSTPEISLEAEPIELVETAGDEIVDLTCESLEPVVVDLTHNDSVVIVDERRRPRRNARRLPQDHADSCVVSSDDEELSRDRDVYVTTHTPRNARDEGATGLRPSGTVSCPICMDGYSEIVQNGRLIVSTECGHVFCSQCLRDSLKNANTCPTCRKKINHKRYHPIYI
T1 sequence (Q9Y4K3 with tags, fused parts or gaps): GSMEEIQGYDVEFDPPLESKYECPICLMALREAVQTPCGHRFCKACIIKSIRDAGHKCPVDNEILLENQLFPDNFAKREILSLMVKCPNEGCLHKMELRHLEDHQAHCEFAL
T3 sequence (Q9Y4K3 with tags, fused parts or gaps): as above

As for `Cc1nn(-c2ccc3nnc(C)n3n2)c(C)c1CCC(=O)N1CCC(Cc2ccccc2)CC1` [Example C25-140, 1-(4-Benzylpiperidin-1-yl)-3-(3,5-dimethyl-1-(3-methyl-[1,2,4]-triazolo-[4,3-b]-pyridazin-6-yl)-1H-pyrazol-4-yl)-propan-1-one], the NF-κB activation result in series [1] is “reduced; also recorded: attenuated NF-κB activation”. The “viability of GCB DLBCL” value in the series with BJAB (GCB DLBCL) is reported as “did not show any difference in viability; also recorded: not affected”. In addition, at TRAF6 RZ1 protein, the “direct binding to TRAF6 RZ1 protein (shifting or disappearing of NMR peaks)” value is “directly binds to the TRAF6 protein”. Also, the food intake entry in series [2] (20 days) is on record as “did not differ; also recorded: remains unaffected”. Further, in series [2] (20 days, high-fat-diet), the body weight gain entry was “reduces gain of weight; also recorded: hardly increased body weight; also recorded: milder body weight gain”. Moreover, the “mRNA levels of IL-1β and VCAM in epidermal white adipose tissue” value in series [2] (day 20) is reported as “reduces IL-1β expression; also recorded: significantly reduced; also recorded: decreased”. On RNF4, the RNF4 auto-ubiquitination result is listed as “not influenced; also recorded: not affected”. Further, the “ability of TRAF6 and Ubc13 to form free poly-ubiquitin chains” value at TRAF6 is “dose-dependently diminished TRAF6 E3 ligase activity; also recorded: dose-dependently impairs”. Besides, the “TRAF6 auto-ubiquitination upon TCR stimulation” value in series [3] was “dose-dependently diminished; also recorded: dose-dependently reduced”.

The values are drawn from US12240854B2, “TRAF 6 inhibitors” (Helmholtz Zentrum München - Deutsches Forschungszentrum für …, priority 2018, dated 2025).
